{
  "source": "patent US11724078B2",
  "about": "“Methods and systems for trans-tissue substance delivery using plasmaporation” (GOJO INDUSTRIES, INC., priority 2016, dated 2023)",
  "test": "Transport of substance applied to plasma treated area through open pores in the SC",
  "conditions": "applied more than 5 minutes after plasma treatment",
  "data": [
    {"substance": "Dextran [10 kDa Dextran]", "values": [
      {"measurement": "passage through the SC when applied after 5 minutes", "value": "no longer passed through the SC"}
    ]}
  ]
}
